Species: Rattus norvegicus
Assay: DrugMatrix - Regimen: Daily Repeat
Type: toxicity, organism-based, Sprague-Dawley
Design: regimen Daily Repeat, gender Male, age 6-8 weeks
Details: in vivo, po, 1500 mg/kg, route oral GAVAGE, dose level High, vehicle .5 % CMC; for ABSOLUTE BASOPHIL / ABSOLUTE EOSINOPHIL / ABSOLUTE LYMPHOCYTE / ABSOLUTE MONOCYTE / ABSOLUTE SEGMENTED NEUTROPHIL / BASOPHIL / EOSINOPHIL / ERYTHROCYTE COUNT / HEMATOCRIT / HEMOGLOBIN / LEUKOCYTE COUNT / LYMPHOCYTE / MEAN CORPUSCULAR HEMOGLOBIN / MEAN CORPUSCULAR HEMOGLOBIN CONCENTRATION / MEAN CORPUSCULAR VOLUME / MONOCYTE / NEUTROPHIL / NUCLEATED RED BLOOD CELLS / PLATELET COUNT: tissue Blood; for ALANINE AMINOTRANSFERASE / ALBUMIN / ALKALINE PHOSPHATASE / ASPARTATE AMINOTRANSFERASE / BLOOD UREA NITROGEN / CARBON DIOXIDE / CHLORIDE / CHOLESTEROL / CREATINE PHOSPHOKINASE / CREATININE / GLUCOSE / LACTATE DEHYDROGENASE / LIPASE / PHOSPHORUS / POTASSIUM / SODIUM / TOTAL BILIRUBIN / TOTAL PROTEIN / URIC ACID: tissue Plasma

O=C(N[C@H](CO)[C@H](O)c1ccc([N+](=O)[O-])cc1)C(Cl)Cl [CHLORAMPHENICOL]
ABSOLUTE BASOPHIL (72 h, time 3 day): 0 CELLS/uL | ABSOLUTE EOSINOPHIL (72 h, time 3 day): 0 CELLS/uL | ABSOLUTE LYMPHOCYTE (72 h, time 3 day): 14694 CELLS/uL | ABSOLUTE MONOCYTE (72 h, time 3 day): 312.67 CELLS/uL | ABSOLUTE SEGMENTED NEUTROPHIL (72 h, time 3 day): 793.33 CELLS/uL | BASOPHIL (72 h, time 3 day): 0% | EOSINOPHIL (72 h, time 3 day): 0% | ERYTHROCYTE COUNT (72 h, time 3 day): 5.41 x10E6/uL | HEMATOCRIT (72 h, time 3 day): 34.37% | HEMOGLOBIN (72 h, time 3 day): 13.67 G/DL | LEUKOCYTE COUNT (72 h, time 3 day): 15.8 x10E3/uL | LYMPHOCYTE (72 h, time 3 day): 93% | MEAN CORPUSCULAR HEMOGLOBIN (72 h, time 3 day): 25.33 pg | MEAN CORPUSCULAR HEMOGLOBIN CONCENTRATION (72 h, time 3 day): 39.83 G/DL | MEAN CORPUSCULAR VOLUME (72 h, time 3 day): 63.63 fL | MONOCYTE (72 h, time 3 day): 2% | NEUTROPHIL (72 h, time 3 day): 5% | NUCLEATED RED BLOOD CELLS (72 h, time 3 day): 0 /100WBC | PLATELET COUNT (72 h, time 3 day): 1264 x10E3/uL | ALANINE AMINOTRANSFERASE (72 h, time 3 day): 78 u/L | ALBUMIN (72 h, time 3 day): 4.33 G/DL | ALKALINE PHOSPHATASE (72 h, time 3 day): 347 u/L | ASPARTATE AMINOTRANSFERASE (72 h, time 3 day): 90.33 u/L | BLOOD UREA NITROGEN (72 h, time 3 day): 15.67 mg/dL | CARBON DIOXIDE (72 h, time 3 day): 37.67 mmol/L | CHLORIDE (72 h, time 3 day): 101.33 MEQ/L | CHOLESTEROL (72 h, time 3 day): 63 mg/dL | CREATINE PHOSPHOKINASE (72 h, time 3 day): 530 u/L | CREATININE (72 h, time 3 day): 0.15 mg/dL | GLUCOSE (72 h, time 3 day): 150 mg/dL | LACTATE DEHYDROGENASE (72 h, time 3 day): 92.67 u/L | LIPASE (72 h, time 3 day): 9.33 u/L | PHOSPHORUS (72 h, time 3 day): 10.53 mg/dL | POTASSIUM (72 h, time 3 day): 6.53 MEQ/L | SODIUM (72 h, time 3 day): 143.67 MEQ/L | TOTAL BILIRUBIN (72 h, time 3 day): 0.13 mg/dL | TOTAL PROTEIN (72 h, time 3 day): 5.6 G/DL | URIC ACID (72 h, time 3 day): 1.4 mg/dL | ABSOLUTE BASOPHIL (120 h, time 5 day): 0 CELLS/uL | ABSOLUTE EOSINOPHIL (120 h, time 5 day): 0 CELLS/uL | ABSOLUTE LYMPHOCYTE (120 h, time 5 day): 13927 CELLS/uL | ABSOLUTE MONOCYTE (120 h, time 5 day): 280 CELLS/uL | ABSOLUTE SEGMENTED NEUTROPHIL (120 h, time 5 day): 1126.33 CELLS/uL | BASOPHIL (120 h, time 5 day): 0% | EOSINOPHIL (120 h, time 5 day): 0% | ERYTHROCYTE COUNT (120 h, time 5 day): 5.7 x10E6/uL | HEMATOCRIT (120 h, time 5 day): 35.27% | HEMOGLOBIN (120 h, time 5 day): 14.27 G/DL | LEUKOCYTE COUNT (120 h, time 5 day): 15.33 x10E3/uL | LYMPHOCYTE (120 h, time 5 day): 90.67% | MEAN CORPUSCULAR HEMOGLOBIN (120 h, time 5 day): 25.07 pg | MEAN CORPUSCULAR HEMOGLOBIN CONCENTRATION (120 h, time 5 day): 40.5 G/DL | MEAN CORPUSCULAR VOLUME (120 h, time 5 day): 61.9 fL | MONOCYTE (120 h, time 5 day): 2% | NEUTROPHIL (120 h, time 5 day): 7.33% | NUCLEATED RED BLOOD CELLS (120 h, time 5 day): 0.33 /100WBC | PLATELET COUNT (120 h, time 5 day): 1090 x10E3/uL | ALANINE AMINOTRANSFERASE (120 h, time 5 day): 63 u/L | ALBUMIN (120 h, time 5 day): 4.13 G/DL | ALKALINE PHOSPHATASE (120 h, time 5 day): 266.33 u/L | ASPARTATE AMINOTRANSFERASE (120 h, time 5 day): 100.33 u/L | BLOOD UREA NITROGEN (120 h, time 5 day): 22.33 mg/dL | CARBON DIOXIDE (120 h, time 5 day): 35 mmol/L | CHLORIDE (120 h, time 5 day): 103 MEQ/L | CHOLESTEROL (120 h, time 5 day): 56 mg/dL | CREATINE PHOSPHOKINASE (120 h, time 5 day): 359.67 u/L | CREATININE (120 h, time 5 day): 0.2 mg/dL | GLUCOSE (120 h, time 5 day): 144 mg/dL | LACTATE DEHYDROGENASE (120 h, time 5 day): 180 u/L | LIPASE (120 h, time 5 day): 8.67 u/L | PHOSPHORUS (120 h, time 5 day): 9.33 mg/dL | POTASSIUM (120 h, time 5 day): 9.76 MEQ/L | SODIUM (120 h, time 5 day): 143.67 MEQ/L | TOTAL BILIRUBIN (120 h, time 5 day): 0.17 mg/dL | TOTAL PROTEIN (120 h, time 5 day): 5.23 G/DL | URIC ACID (120 h, time 5 day): 1.3 mg/dL

From ChEMBL document CHEMBL3885881, “DrugMatrix”
